Source: BindingDB's records for doi:10.1021/jm00028a009 (Cambridge Neuroscience, 1994)

Target: Sigma non-opioid intracellular receptor 1 (Cavia porcellus)
Experiment: Tested in vitro for the concentration required to inhibit specific [3H]DTG radioligand binding to sigma receptor on guinea pig brain membrane

Row | SMILES | IC50
1 | COc1cccc(N=C(N)Nc2cccc(OC)c2)c1 [N,N'-Bis-(3-methoxy-phenyl)-guanidine] | 0.351 µM
2 | CCc1cccc(N=C(N)N2CCC(c3ccccc3)CC2)c1 [N-(3-Ethyl-phenyl)-4-phenyl-piperidine-1-carboxamidine] | 0.06 µM
3 | CC(C)c1cccc(N=C(N)Nc2cccc(C(C)C)c2)c1 | 0.096 µM
4 | CCc1cccc(N=C(N)N(C)c2cccc3ccccc23)c1 [N'-(3-Ethyl-phenyl)-N-methyl-N-naphthalen-1-yl-guanidine] | 1 µM
5 | NC(=Nc1cccc2ccccc12)N(c1ccccc1)c1cccc2ccccc12 [N,N'-Di-naphthalen-1-yl-N-phenyl-guanidine] | 7.93 µM
6 | NC(=Nc1ccc(Br)cc1)Nc1ccc(Br)cc1 | 0.033 µM
7 | CCc1cccc(N(CC)C(N)=Nc2cccc3ccccc23)c1 [N-Ethyl-N-(3-ethyl-phenyl)-N'-naphthalen-1-yl-guanidine] | 2.19 µM
8 | CC(C)c1ccc(N=C(N)Nc2ccc(C(C)C)cc2)cc1 | 0.242 µM
9 | CN(C(N)=Nc1cccc2ccccc12)c1cccc2ccccc12 [N-Methyl-N,N'-di-naphthalen-1-yl-guanidine] | 4.8 µM
10 | NC(=Nc1cccc2c1CCC2)Nc1cccc2c1CCC2 [N,N'-Di-indan-4-yl-guanidine] | 0.029 µM
11 | CCc1cccc(NC(N)=Nc2cccc3ccccc23)c1 [N-(3-Ethyl-phenyl)-N'-naphthalen-1-yl-guanidine] | 0.054 µM
12 | CCc1cccc(N=C(N)Nc2cccc(CC)c2)c1 | 0.008 µM
13 | CN(C(N)=Nc1cccc2ccccc12)c1cccc(N=[N+]=[N-])c1 [N-(3-Azido-phenyl)-N-methyl-N'-naphthalen-1-yl-guanidine] | 3.02 µM
14 | CN(C(N)=Nc1cccc2ccccc12)c1ccccc1 [N-Methyl-N'-naphthalen-1-yl-N-phenyl-guanidine] | 2.9 µM
15 | Cc1cccc(N=C(N)N(C)c2cccc(C)c2)c1 [N-Methyl-N,N'-di-m-tolyl-guanidine] | 0.247 µM
16 | CC(C)c1ccccc1N=C(N)Nc1cccc2ccccc12 [N-(2-Isopropyl-phenyl)-N'-naphthalen-1-yl-guanidine] | 0.091 µM

Row | SMILES | IC50
17 | CN(C(=N)N(c1ccccc1)c1cccc2ccccc12)c1cccc2ccccc12 [N-Methyl-N,N'-di-naphthalen-1-yl-N'-phenyl-guanidine] | 11 µM
18 | CCN(C(N)=Nc1cccc2ccccc12)c1cccc2ccccc12 [N-Ethyl-N,N'-di-naphthalen-1-yl-guanidine] | 6.13 µM
19 | CCc1cccc(N(C)C(=N)N(C)c2cccc3ccccc23)c1 [N-(3-Ethyl-phenyl)-N,N'-dimethyl-N'-naphthalen-1-yl-guanidine] | 1.21 µM
20 | NC(=Nc1cccc2ccccc12)Nc1cccc2ccccc12 | 0.165 µM
21 | CN(C(N)=Nc1cccc2ccccc12)c1cccc(N)c1 [N-(3-Amino-phenyl)-N-methyl-N'-naphthalen-1-yl-guanidine] | 2.7 µM
22 | CN(/C(N)=N/c1cccc2ccccc12)c1cccc([N+](=O)[O-])c1 [N-Methyl-N'-naphthalen-1-yl-N-(3-nitro-phenyl)-guanidine] | 6.26 µM
23 | NC(=Nc1cccc2ccccc12)Nc1ccccc1I [N-(2-Iodo-phenyl)-N'-naphthalen-1-yl-guanidine] | 0.04 µM
24 | NC(=Nc1ccc2ccccc2c1)Nc1ccc2ccccc2c1 [N,N'-Di-naphthalen-2-yl-guanidine] | 0.092 µM
25 | Cc1cccc(NC(N)=Nc2cccc3ccccc23)c1 [N-Naphthalen-1-yl-N'-m-tolyl-guanidine] | 0.075 µM
26 | NC(=Nc1cccc2ccccc12)N1CCCCC1 [N-Naphthalen-1-yl-piperidine-1-carboxamidine] | 1.07 µM
27 | C/[N+](=C(/[NH-])Nc1cccc([N+](=O)[O-])c1)c1cccc2ccccc12 [N-Methyl-N-naphthalen-1-yl-N'-(3-nitro-phenyl)-guanidine] | 2.64 µM
28 | CN(C(=N)N(C)c1cccc2ccccc12)c1cccc2ccccc12 [N,N'-Dimethyl-N,N'-di-naphthalen-1-yl-guanidine] | 10.7 µM
29 | CN(C(N)=Nc1cccc(N)c1)c1cccc2ccccc12 [N'-(3-Amino-phenyl)-N-methyl-N-naphthalen-1-yl-guanidine] | 13 µM
30 | NC(=Nc1cccc2ccccc12)N1CCC(c2ccccc2)CC1 [N-Naphthalen-1-yl-4-phenyl-piperidine-1-carboxamidine] | 0.343 µM
31 | N=C(N1CCc2ccccc21)N1CCc2ccccc21 [C-[Bis-(2,3-dihydro-indol-1-yl)]-methyleneamine] | 7.18 µM
32 | NC(=Nc1cccc2ccccc12)N1CCCCCC1 [N-Naphthalen-1-yl-azepane-1-carboxamidine] | 1.41 µM
